Counter-ions that a name gives are not always drawn.
Assays:
human His-PIM2 [23-299] = biological target: T1, human His-PIM2 [23-299] (Homo sapiens, UniProt Q9P1W9); assay: PIM2 in-vitro mobility shift assay (Caliper LC3000, FL-Ahx-Bad phosphorylation); assay type: biochemical; conditions: 1.5 h; percent inhibition at 0.3 uM compound; read-out: PIM2 % I at 0.3 uM
T1 construct: purified human His-PIM2 [23-299] enzyme; His (N); host or cells: E. coli

human His-PIM1 [2-313] = biological target: T2, human His-PIM1 [2-313] (Homo sapiens, UniProt P11309); assay: PIM1 in-vitro mobility shift assay (Caliper LC3000, FL-Ahx-Bad phosphorylation); assay type: biochemical; conditions: 1.5 h; percent inhibition at 0.3 uM compound; read-out: PIM1 % I at 0.3 uM
T2 construct: purified human His-PIM1 [2-313] enzyme; His (N); purchased University of Dundee, Scotland; host or cells: baculovirus system
T2 sequence (P11309 2-313): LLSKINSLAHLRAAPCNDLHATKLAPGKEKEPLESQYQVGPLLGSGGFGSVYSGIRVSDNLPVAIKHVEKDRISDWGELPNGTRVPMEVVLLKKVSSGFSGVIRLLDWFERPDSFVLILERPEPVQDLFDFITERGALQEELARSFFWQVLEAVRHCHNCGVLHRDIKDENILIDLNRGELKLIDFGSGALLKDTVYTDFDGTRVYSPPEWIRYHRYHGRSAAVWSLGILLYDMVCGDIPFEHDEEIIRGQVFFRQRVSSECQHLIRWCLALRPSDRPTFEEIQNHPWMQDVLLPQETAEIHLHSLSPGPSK
In short: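 Compound preincubated 20 min at 25 °C with 2.4 nM PIM1, 3.6 µM FL-Ahx-Bad peptide and 240 µM ATP (1.2× mix concentrations). Reaction started with 24 mM MgCl2 mix, run 90 min at 25 °C, EDTA-stopped. Phospho/unphospho peptide separated by microfluidic mobility shift; percent inhibition from ratiometric turnover.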

T1 sequence (Q9P1W9 23-299): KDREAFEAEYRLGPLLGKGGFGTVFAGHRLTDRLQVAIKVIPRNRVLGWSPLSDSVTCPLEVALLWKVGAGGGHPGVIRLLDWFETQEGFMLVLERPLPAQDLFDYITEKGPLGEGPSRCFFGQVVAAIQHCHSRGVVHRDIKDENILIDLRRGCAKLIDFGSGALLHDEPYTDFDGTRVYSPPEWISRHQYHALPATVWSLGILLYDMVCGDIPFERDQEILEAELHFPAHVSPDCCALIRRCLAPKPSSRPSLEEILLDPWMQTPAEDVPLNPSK

Compound | inhibition at 0.3 µM (human His-PIM2 [23-299]) | inhibition at 0.3 µM (human His-PIM1 [2-313])
Cn1nnc2cc(/C=C3\SC(=O)NC3=O)ccc21 [Example 73, (5Z)-5-[(1-methyl-1H-1,2,3-benzotriazol-5-yl)methylene]-1,3-thiazolidine-2,4-dione] | < 5% | < 5%
O=C1NC(=O)/C(=C/c2cc(C(F)(F)F)cc(Cl)c2N2CCN(C3CCCC3)CC2)S1 [Example 6, (Z)-5-(3-chloro-2-(4-cyclopentylpiperazin-1-yl)-5 (trifluoromethyl)benzylidene)thiazolidine-2,4-dione hydrochloride] | 9.5% | 79.4%
O=C1NC(=O)/C(=C/c2ccc[nH]c2=O)S1 [Example 70, (Z)-5-((2-oxo-1,2-dihydropyridin-3-yl)methylene)thiazolidine-2,4-dione] | < 5% | < 5%
CCCCN1CCCN(c2c(Cl)cc(C(F)(F)F)cc2/C=C2\SC(=O)NC2=O)CC1 [Example 27] | 25.1% | 90.8%
Cc1noc(C2CCCN(c3c(Cl)cc(C(F)(F)F)cc3/C=C3\SC(=O)NC3=O)C2)n1 (stereo not drawn) [Example 16] | < 5% | 13.9%
NCC1CCCN(c2c(Cl)cc(C(F)(F)F)cc2/C=C2\SC(=O)NC2=O)C1 (stereo not drawn) [Example 4] | 79.6% | > 95%
O=C1NC(=O)/C(=C/c2cccnc2N2CCNCC2)S1 [Example 89, (Z)-5-((2-(piperazin-1-yl)pyridin-3-yl)methylene)thiazolidine-2,4-dione hydrochloride] | 21.5% | 48.4%
O=C1NC(=O)/C(=C/c2ccccc2N2CCOCC2)S1 [Example 82, (5Z)-5-(2-morpholin-4-ylbenzylidene)-1,3-thiazolidine-2,4-dione] | 58.2% | 87.4%
CCN(CC)CCOc1ccc(OC)cc1/C=C1\SC(=O)NC1=O [Example 63, (Z)-5-(2-(2-(diethylamino)ethoxy)-5-methoxybenzylidene)thiazolidine-2,4-dione] | 21.5% | 79.2%
O=C1NC(=O)/C(=C/c2cccc(Cl)c2N2CCNCC2)S1 [Example 98, (Z)-5-(3-chloro-2-(piperazin-1-yl)benzylidene)thiazolidine-2,4-dione hydrochloride] | 81.4% | > 95%
O=C1NC(=O)/C(=C/c2ccncc2)S1 [Example 72, (Z)-5-(pyridin-4-ylmethylene)thiazolidine-2,4-dione] | < 5% | < 5%
CN(C)C1CCN(c2ccccc2/C=C2\SC(=O)NC2=O)C1 (stereo not drawn) [Example 48, (5Z)-5-{2-[3-(dimethylamino)pyrrolidin-1-yl]benzylidene}-1,3-thiazolidine-2,4-dione] | 41.3% | 84.4%
O=C1NC(=O)/C(=C/c2cc(C(F)(F)F)cc(Cl)c2N2CCN(c3ccc(F)cc3)CC2)S1 [Example 7] | < 5% | 5.4%
NS(=O)(=O)CCCC(=O)N[C@H]1CCN(c2c(Cl)cccc2/C=C2\SC(=O)NC2=O)C1 [Example 143] | 49.8% | 85.9%
N[C@H]1CCN(c2c(Cl)cccc2/C=C2\SC(=O)NC2=O)C1 [Example 86, (S,Z)-5-(2-(3-aminopyrrolidin-1-yl)-3-chlorobenzylidene)thiazolidine-2,4-dione hydrochloride] | > 95% | > 95%
CN(C)C1CCN(c2ccccc2/C=C2\SC(=O)NC2=O)CC1 [Example 49, (5Z)-5-{2-[4-(dimethylamino)piperidin-1-yl]benzylidene}-1,3-thiazolidine-2,4-dione] | 86.3% | > 95%
CN(C)C(=O)CCC(=O)N[C@H]1CCN(c2c(Cl)cccc2/C=C2\SC(=O)NC2=O)C1 [Example 144] | 21.2% | 63.2%
NCCCN[C@H]1CCN(c2c(Cl)cccc2/C=C2\SC(=O)NC2=O)C1 [Example 125] | > 95% | > 95%
O=C(Cc1cccnc1)N[C@H]1CCN(c2c(Cl)cccc2/C=C2\SC(=O)NC2=O)C1 [Example 139] | 15.1% | 58.1%
NCCC(=O)N1CCN(c2ccc(C(F)(F)F)cc2/C=C2\SC(=O)NC2=O)CC1 [Example 93, (Z)-5-(2-(4-(3-aminopropanoyl)piperazin-1-yl)-5-(trifluoromethyl)benzylidene)thiazolidine-2,4-dione hydrochloride] | 66.3% | > 95%
O=C1NC(=O)/C(=C/c2cc(C(F)(F)F)cc(Cl)c2N2CCC(CCO)CC2)S1 [Example 13] | < 5% | < 5%

Results, then the compound that gave them:

inhibition at 0.3 µM (human His-PIM2 [23-299]) | inhibition at 0.3 µM (human His-PIM1 [2-313]) | Compound
87.9% | 83.9% | NC(=O)c1ccc(N2CCC[C@H](N)C2)c(/C=C2\SC(=O)NC2=O)c1 [Example 122AF, (S,Z)-4-(3-aminopiperidin-1-yl)-3-((2,4-dioxothiazolidin-5-ylidene)methyl)benzamide hydrochloride]
55.2% | > 95% | Cc1ccc(N2CC[C@H](N(C)C)C2)c(C=C2SC(=O)NC2=O)c1 [Example 84L, (S)-5-(2-(3-(dimethylamino)pyrrolidin-1-yl)-5-methylbenzylidene)thiazolidine-2,4-dione]
82.7% | > 95% | CN(C)[C@H]1CCN(c2ccc(Cl)cc2C=C2SC(=O)NC2=O)C1 [Example 84I, (S)-5-(5-chloro-2-(3-(dimethylamino)pyrrolidin-1-yl)benzylidene)thiazolidine-2,4-dione]
54.3% | 92.9% | CN1CCN(c2ccccc2/C=C2\SC(=O)NC2=O)CC1 [Example 84A, (5Z)-5-[2-(4-methylpiperazin-1-yl)benzylidene]-1,3-thiazolidine-2,4-dione]
> 95% | > 95% | N[C@H]1CN(c2c(Cl)cccc2/C=C2\SC(=O)NC2=O)CC[C@@H]1O (racemic) [Example 122M, (±)-(Z)-5-(2,3-amino-4-hydroxypiperidin-1-yl)-3-chlorobenzylidene)thiazolidine-2,4-dione hydrochloride]
> 95% | > 95% | CCOc1cccc(/C=C2\SC(=O)NC2=O)c1N1CC[C@H](N)C1 [Example 122Q, (S,Z)-5-(2-(3-aminopyrrolidin-1-yl)-3-ethoxybenzylidene)thiazolidine-2,4-dione hydrochloride]
92.1% | > 95% | N[C@@H]1CCN(c2c(Cl)cccc2/C=C2\SC(=O)NC2=O)C1 [Example 122G, (R,Z)-5-(2-(3-aminopyrrolidin-1-yl)-3-chlorobenzylidene)thiazolidin-2,4-dione hydrochloride]
> 95% | > 95% | N[C@H]1CCN(c2c(Cl)cc(C(F)(F)F)cc2/C=C2\SC(=O)NC2=O)C1 [Example 5B]
> 95% | > 95% | N[C@@H]1CCCN(c2c(/C=C3\SC(=O)NC3=O)cccc2OCC(F)(F)F)C1 [Example 122Y, (R,Z)-5-(2-(3-aminopiperidin-1-yl)-3-(2,2,2-trifluoroethoxy)benzylidene)thiazolidine-2,4-dione hydrochloride]
